Test results from patent publication US9138418B2, “Therapeutic compositions and methods for delivery of active agents cleavably linked to nanoparticles” (priority 2009, dated 2015).

Test system: MCF-7 breast cancer cells
Assay: MTT cell growth inhibition assay in MCF-7 breast cancer cells
Type: cell-based
Settings: 72 hours post treatment, concentrations with respect to paclitaxel content
Protocol: The antiproliferative capabilities of PTX-AuNPs from Example 1 were first investigated in vitro. To this end, cellular assays were performed to compare the ability of the PTX-AuNPs to inhibit cell growth relative to the parent drug. Briefly, MCF-7 breast cancer cells were treated over a range of concentrations (based on equivalent PTX content) for all samples and relative cell survival was measured 72 hours post treatment following the MTT protocol. Additionally, the paclitaxel pyruvate compound was also analyzed, as it represented the agent released from the gold surface upon degradation of the hydrazone linker. MCF-7 cells were plated in 6 well plates and allowed to proliferate until approximately 80-90% confluent. Once optimal confluency was reached, increasing concentrations of PTX-AuNPs were added to each well in order to ensure sufficient uptake for imaging (up to 100 μg/mL). Following 12 hours of incubation with PTX-AuNPs, the cells were fixed with a solution of gluteraldehyde and imaged by transmission electron microscopy (TEM). MCF-7 breast cancer cells were plated in 96-well plates at a concentration of 4,000 cells/well (100 μL/well) and allowed to attach for 24 hours. […] Upon agitating the plates for 2 minutes, absorbance values were recorded using a plate reader (Gene Mate, BioTek) equipped with a 570 nm filter.

IC50 (Homo sapiens, MCF7, MCF-7 cells)	IC50 (MCF-7 cells)	SMILES
~4 nM		CC(=O)O[C@H]1C(=O)[C@@]2(C)[C@H]([C@H](OC(=O)c3ccccc3)[C@]3(O)C[C@H](OC(=O)[C@H](O)[C@@H](NC(=O)c4ccccc4)c4ccccc4)C(C)=C1C3(C)C)[C@]1(OC(C)=O)CO[C@@H]1C[C@@H]2O [paclitaxel]
	9 nM	CC(=O)OC1C(=O)C2(C)C(O)CC3OCC3(OC(C)=O)C2C(OC(=O)c2ccccc2)C2(O)CC(OC(=O)C(OC(=O)C(C)=O)C(NC(=O)c3ccccc3)c3ccccc3)C(C)=C1C2(C)C (centres unmarked) [paclitaxel pyruvate, Paclitaxel 2′ Pyruvate]
